Measured values reported in patent US8357694B2, “Substituted 5,6-dihydro-6-phenylbenzo[F]isoquinolin-2-amine compounds” (ArQule, Inc., priority 2008, dated 2013).
“And” between values parts separate entries of the source, which are not always exact repeats. Equal entries are not always repeated. Where two headings read alike, the source gives them in different places.

Assays:
[1] = tested on: CALU-6; experiment: combination cytotoxicity, CALU-6; type: cell-based; details: in combination with (3R,4R)-3-(5,6-dihydro-4H-pyrrolo[3,2,1-ij]quinolin-1-yl)-4-(1H-indol-3-yl)pyrrolidine-2,5-dione
Source text: (§1) The combination data of (R)-6-(2-fluorophenyl)-N-(3-(2-(4-(2-methoxyethyl)piperazin-1-yl)ethyl)phenyl)-5,6-dihydrobenzo[h]quinazolin-2-amine with a kinase inhibitor (3R,4R)-3-(5,6-dihydro-4H-pyrrolo[3,2,1-ij]quinolin-1-yl)-4-(1H-indol-3-yl)pyrrolidine-2,5-dione is shown in Table 28. The identity and tissue origin of cancer cell lines are indicated.

[2] = tested on: RT112; experiment: combination cytotoxicity, RT112; type: cell-based; details: in combination with (3R,4R)-3-(5,6-dihydro-4H-pyrrolo[3,2,1-ij]quinolin-1-yl)-4-(1H-indol-3-yl)pyrrolidine-2,5-dione
Source text: as §1

[3] = tested on: LS174T; experiment: combination cytotoxicity, LS174T; type: cell-based; details: in combination with (3R,4R)-3-(5,6-dihydro-4H-pyrrolo[3,2,1-ij]quinolin-1-yl)-4-(1H-indol-3-yl)pyrrolidine-2,5-dione
Source text: as §1

[4] = tested on: FGFR2 in KATO III; experiment: FGFR2 phosphorylation by immunoblotting, KATO III; type: cell-based; details: 0.3 μM to 10 μM for 2 h, then KGF stimulation for 15 min
Protocol: (§2) Cells whose growth rely on FGFR2 as determined in Example 585 such as KATO III and SNU-16, were treated with increasing concentration of example 159, from 0.3 μM to 10 μM for 2 h, followed by stimulation with […] of KGF for 15 min.

[5] = tested on: DU4475; experiment: combination cytotoxicity, DU4475; type: cell-based; details: in combination with (3R,4R)-3-(5,6-dihydro-4H-pyrrolo[3,2,1-ij]quinolin-1-yl)-4-(1H-indol-3-yl)pyrrolidine-2,5-dione
Source text: as §1

[6] = tested on: Kato III cells; experiment: cell cycle profile by FACS analyses; type: cell-based
Protocol: Kato III cells were treated with example 159, or FGFR2 siRNA. Cell cycle profiles were assessed by FACS analyses (FIG. 3).

[7] = tested on: A549; experiment: combination cytotoxicity, A549; type: cell-based; details: in combination with (3R,4R)-3-(5,6-dihydro-4H-pyrrolo[3,2,1-ij]quinolin-1-yl)-4-(1H-indol-3-yl)pyrrolidine-2,5-dione
Source text: as §1

[8] = tested on: THP-1; experiment: combination cytotoxicity, THP-1; type: cell-based; details: in combination with (3R,4R)-3-(5,6-dihydro-4H-pyrrolo[3,2,1-ij]quinolin-1-yl)-4-(1H-indol-3-yl)pyrrolidine-2,5-dione
Source text: as §1

[9] = tested on: SNU-16; experiment: combination cytotoxicity, SNU-16; type: cell-based; details: in combination with (3R,4R)-3-(5,6-dihydro-4H-pyrrolo[3,2,1-ij]quinolin-1-yl)-4-(1H-indol-3-yl)pyrrolidine-2,5-dione
Source text: as §1

[10] = tested on: FGFR2 in SNU-16; experiment: FGFR2 phosphorylation by immunoblotting, SNU-16; type: cell-based; details: 0.3 μM to 10 μM for 2 h, then KGF stimulation for 15 min
Protocol: as §2

[11] = tested on: CAKI-2; experiment: combination cytotoxicity, CAKI-2; type: cell-based; details: in combination with (3R,4R)-3-(5,6-dihydro-4H-pyrrolo[3,2,1-ij]quinolin-1-yl)-4-(1H-indol-3-yl)pyrrolidine-2,5-dione
Source text: as §1

[12] = tested on: SNU-16, Ba/F3-FGFR2 or Ba/F3 INSR tumors; experiment: tumor growth in xenograft models; type: in vivo; details: subcutaneous tumors in nude mice; orally dosed once daily
Protocol: (A) Tumor from cancer cells SNU-16, Ba/F3-FGFR2 or Ba/F3 INSR were established subcutaneously in nude mice. Tumor growth in nude mice orally dosed with the indicated dose of example 159, or vehicle control was determined. All regimens were administered once daily for the indicated number of days. Tumor sizes were evaluated periodically during treatment and are represented as the mean of tumor volume in mm3±SEM (n=10) (FIGS. 4A-C). Phosphorylation of FGFR2 (D) or ERK (E) was assessed for cells from tumors harvested at the indicated time points after a single oral administration of 250 mg/kg of Example 159 by immunohistochemistry.

[13] = tested on: RT4; experiment: combination cytotoxicity, RT4; type: cell-based; details: in combination with (3R,4R)-3-(5,6-dihydro-4H-pyrrolo[3,2,1-ij]quinolin-1-yl)-4-(1H-indol-3-yl)pyrrolidine-2,5-dione
Source text: as §1

[14] = tested on: Ba/F3 parental cells; experiment: MTS assay, Ba/F3 parental; details: Mus musculus, BaF3, read-out: MTS IC50
Protocol: (§3) Cells were maintained at 37° C., 5% CO2 in DMEM media supplemented with 1% fetal bovine serum, penicillin/streptomycin and fungizone (Invitrogen). Cells were seeded into 96-well tissue culture plates at 3000 per well and cultured at 37° C. for 18 hours. Test compounds were dissolved and diluted to 300× in DMSO then diluted 1:40 in DMEM.

[15] = tested on: SNU-16; experiment: in vitro PD assay, SNU-16; type: cell-based; details: Homo sapiens
[16] = tested on: SNU-16; experiment: MTS assay, SNU-16; type: cell-based; details: Homo sapiens, SNU-16, SNU-16; read-out: MTS IC50
Protocol: as §3

[17] = molecular target: T1, FGFR2 kinase (Homo sapiens, UniProt P21802, N549H); experiment: fluorescent ELISA FGFR2 kinase assay (biochemical)
T1 construct: purchased Millipore 14-742
T1 sequence (P21802 456-770 N549H limits assumed): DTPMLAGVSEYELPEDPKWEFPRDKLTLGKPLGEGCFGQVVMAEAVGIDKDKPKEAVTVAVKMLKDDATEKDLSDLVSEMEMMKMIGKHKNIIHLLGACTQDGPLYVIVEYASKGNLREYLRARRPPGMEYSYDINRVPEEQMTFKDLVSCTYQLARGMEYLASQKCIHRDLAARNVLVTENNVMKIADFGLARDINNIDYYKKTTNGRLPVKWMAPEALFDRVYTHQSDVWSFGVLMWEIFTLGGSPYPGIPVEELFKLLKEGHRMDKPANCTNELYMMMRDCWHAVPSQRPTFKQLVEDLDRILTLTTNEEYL
Protocol: The enzymatic assays described herein are conducted according to the following procedures from commercially available reagents. In one, non limiting, example, a fluorescent ELISA assay is used to identify and characterize inhibitors of FGFR2 kinase as described herein. This heterogeneous assay utilizes a biotinylated peptide with a tyrosine motif as a substrate and an anti-phospho-tyrosine antibody to measure phosphorylation of the substrate. […] The reaction is incubated for 60 minutes. As the reaction proceeds, FGFR2 phosphorylates tyrosines in the peptide. […] Peptides are captured for 30 minutes at room temperature, the phosphorylation of peptides continues during this phase. The reaction is stopped by washing the streptavidin-coated plate 6 times with TBST. […] Unbound anti-phospho-tyrosine antibody is removed by washing the streptavidin-coated plate 6 times with TBST. […] Unbound secondary antibody is removed by washing the streptavidin-coated plate 6 times with TBST.

[18] = tested on: KATO III; experiment: MTS assay, KATO III; type: cell-based; details: Homo sapiens, read-out: MTS IC50
Protocol: as §3

[19] = tested on: KATO III; experiment: in vitro PD assay, KATO III; type: cell-based; details: Homo sapiens

Structure (SMILES)	combination cytotoxicity [1]	combination cytotoxicity [2]	combination cytotoxicity [3]	amount of phosphorylated FGFR2 [4]	combination cytotoxicity [5]	cell cycle profile [6]	combination cytotoxicity [7]	combination cytotoxicity [8]	combination cytotoxicity [9]	amount of phosphorylated FGFR2 [10]	combination cytotoxicity [11]	tumor growth in xenograft models [12]	combination cytotoxicity [13]	IC50 [14] [µM]	IC50 [15] [nM]	IC50 [16] [nM]	IC50 ([17]; FGFR2 (N549H), read-out: Biochemical data (IC50-μM) FGFR2 (N549H))	IC50 ([17]; read-out: Biochemical IC50) [µM]	IC50 [18] [nM]	IC50 [19] [nM]
COCCN1CCN(CCc2cccc(Nc3ncc4c(n3)-c3ccccc3[C@H](c3ccccc3F)C4)c2)CC1 [(R)-6-(2-fluorophenyl)-N-(3-(2-(4-(2-methoxyethyl)piperazin-] [(R)-6-(2-fluorophenyl)-N-(3-(2-(4-(2-methoxyethyl)piperazin-1-yl)ethyl)phenyl)-5,6-dihydrobenzo[h]quinazolin-2-amine]	additive cytotoxicity	additive cytotoxicity	additive cytotoxicity	inhibition of autophosphorylation of FGFR2	additive cytotoxicity	arrest of KATO III cells in G1 phase	additive cytotoxicity	additive cytotoxicity	additive cytotoxicity	inhibition of autophosphorylation of FGFR2	additive cytotoxicity	inhibition of tumor growth	additive cytotoxicity							
COCCN1CCN(CCc2cccc(Nc3ncc4c(n3)-c3ccccc3[C@H](c3ccccc3F)C4)c2)CC1 [Example 159, (R)-6-(2-fluorophenyl)-N-(3-(2-(4-(2-methoxyethyl)piperazin-1-yl)ethyl)phenyl)-5,6-dihydrobenzo[h]quinazolin-2-amine]														70	200	1000	0.00714 µM and 0.0523 µM	0.0004	100	100
